From patent publication US7202280B2, “Methods for the treatment and prevention of pancreatitis and for induction of liver regeneration” (priority 2002, dated 2007)

Tested on: syngenic and metallothionein-SSAT mice
Experiment: Hepatic, pancreatic and renal polyamine concentration in syngenic and metallothionein-SSAT mice after analogue
Format: in vivo, mouse
Settings: 24 h
Description: α-methylspermidine, Bis-α-methylspermine and α-methylspermine were administered in saline. […] The data are expressed as means ±S.D. For statistical analysis, the two-tailed Student's t test was used.

With `CC(N)CCNCCCCN` (stereo not drawn) [α-methylspermidine, 1-methylspermidine] the “hepatic N^1-Acetyl-spermidine” value (Sg mice, 50 mg/kg) was 21.45 pmoles/mg tissue wet weight, the “hepatic Spermidine” value (Sg mice, 50 mg/kg) was 1018.24 pmoles/mg tissue wet weight and the “hepatic Spermine” value (Sg mice, 50 mg/kg) was 864.34 ± 90.79 ^++ pmoles/mg tissue wet weight. The “hepatic α-Methyl-spermidine” value (Sg mice, 50 mg/kg) was 394.01 pmoles/mg tissue wet weight, the “pancreatic Putrescine” value (Sg mice, 50 mg/kg) was 2.82 pmoles/mg tissue wet weight and the “pancreatic Spermidine” value (Sg mice, 50 mg/kg) was 6597.75 ± 1034.98 ^+ pmoles/mg tissue wet weight. The “pancreatic Spermine” value (Sg mice, 50 mg/kg) was 911.15 pmoles/mg tissue wet weight, the “renal N^1-Acetylspermidine” value (Sg mice, 50 mg/kg) was 36.67 pmoles/mg tissue wet weight and the “renal Putrescine” value (Sg mice, 50 mg/kg) was 45.91 pmoles/mg tissue wet weight. The “renal Spermidine” value (Sg mice, 50 mg/kg) was 315.36 ± 46.18 ^+ pmoles/mg tissue wet weight, the “renal Spermine” value (Sg mice, 50 mg/kg) was 856.32 ± 68.27 pmoles/mg tissue wet weight and the “renal α-Methylspermidine” value (Sg mice, 50 mg/kg) was 122.64 pmoles/mg tissue wet weight. For the same molecule, the “hepatic N^1-Acetyl-spermidine” value (Sg mice, 100 mg/kg) was 12.90 pmoles/mg tissue wet weight, the “hepatic Putrescine” value (Sg mice, 100 mg/kg) was 15.36 pmoles/mg tissue wet weight and the “hepatic Spermidine” value (Sg mice, 100 mg/kg) was 729.82 pmoles/mg tissue wet weight. The “hepatic Spermine” value (Sg mice, 100 mg/kg) was 892.64 ± 79.24 ^++ pmoles/mg tissue wet weight, the “hepatic α-Methyl-spermidine” value (Sg mice, 100 mg/kg) was 461.44 pmoles/mg tissue wet weight and the “pancreatic N^1-Acetyl-spermidine” value (Sg mice, 100 mg/kg) was 66.33 pmoles/mg tissue wet weight. The “pancreatic Spermidine” value (Sg mice, 100 mg/kg) was 6089.81 ± 1039.94 ^++ pmoles/mg tissue wet weight, the “pancreatic Spermine” value (Sg mice, 100 mg/kg) was 815.33 pmoles/mg tissue wet weight and the “renal N^1-Acetylspermidine” value (Sg mice, 100 mg/kg) was 38.89 pmoles/mg tissue wet weight. For the same molecule, the “renal Putrescine” value (Sg mice, 100 mg/kg) was 68.97 pmoles/mg tissue wet weight, the “renal Spermidine” value (Sg mice, 100 mg/kg) was 231.78 ± 25.15 pmoles/mg tissue wet weight and the “renal Spermine” value (Sg mice, 100 mg/kg) was 686.21 ± 75.94 ^+ pmoles/mg tissue wet weight. The “renal α-Methylspermidine” value (Sg mice, 100 mg/kg) was 146.37 pmoles/mg tissue wet weight, the “hepatic N^1-Acetyl-spermidine” value (Sg mice, 150 mg/kg) was 23.35 pmoles/mg tissue wet weight and the “hepatic Spermidine” value (Sg mice, 150 mg/kg) was 723.14 pmoles/mg tissue wet weight. For the same molecule, the “hepatic Spermine” value (Sg mice, 150 mg/kg) was 739.53 ± 170.40 ^+ pmoles/mg tissue wet weight, the “hepatic α-Methyl-spermidine” value (Sg mice, 150 mg/kg) was 504.41 pmoles/mg tissue wet weight and the “pancreatic Putrescine” value (Sg mice, 150 mg/kg) was 1.66 pmoles/mg tissue wet weight. The “pancreatic Spermidine” value (Sg mice, 150 mg/kg) was 6345.88 ± 1026.88 ^++ pmoles/mg tissue wet weight, the “pancreatic Spermine” value (Sg mice, 150 mg/kg) was 833.73 pmoles/mg tissue wet weight and the “renal N^1-Acetylspermidine” value (Sg mice, 150 mg/kg) was 24.61 pmoles/mg tissue wet weight. For the same molecule, the “renal Putrescine” value (Sg mice, 150 mg/kg) was 65.28 pmoles/mg tissue wet weight, the “renal Spermidine” value (Sg mice, 150 mg/kg) was 240.59 ± 28.71 pmoles/mg tissue wet weight and the “renal Spermine” value (Sg mice, 150 mg/kg) was 635.17 ± 42.35 pmoles/mg tissue wet weight. The “renal α-Methylspermidine” value (Sg mice, 150 mg/kg) was 175.49 pmoles/mg tissue wet weight, the “hepatic N^1-Acetyl-spermidine” value (Sg mice, 250 mg/kg) was 18.97 pmoles/mg tissue wet weight and the “hepatic Putrescine” value (Sg mice, 250 mg/kg) was 21.87 pmoles/mg tissue wet weight. For the same molecule, the “hepatic Spermidine” value (Sg mice, 250 mg/kg) was 593.49 pmoles/mg tissue wet weight, the “hepatic Spermine” value (Sg mice, 250 mg/kg) was 854.77 ± 108.73 ^++ pmoles/mg tissue wet weight and the “hepatic α-Methyl-spermidine” value (Sg mice, 250 mg/kg) was 763.57 pmoles/mg tissue wet weight. For the same molecule, the “pancreatic Putrescine” value (Sg mice, 250 mg/kg) was 158.82 pmoles/mg tissue wet weight, the “pancreatic Spermidine” value (Sg mice, 250 mg/kg) was 4773.64 ± 838.69 ^++ pmoles/mg tissue wet weight and the “pancreatic Spermine” value (Sg mice, 250 mg/kg) was 762.743 pmoles/mg tissue wet weight. For the same molecule, the “pancreatic α-Methyl-spermidine” value (Sg mice, 250 mg/kg) was 1363.02 pmoles/mg tissue wet weight, the “renal N^1-Acetylspermidine” value (Sg mice, 250 mg/kg) was 31.10 pmoles/mg tissue wet weight and the “renal Putrescine” value (Sg mice, 250 mg/kg) was 41.84 pmoles/mg tissue wet weight. The “renal Spermidine” value (Sg mice, 250 mg/kg) was 225.57 ± 29.21 ^+ pmoles/mg tissue wet weight, the “renal Spermine” value (Sg mice, 250 mg/kg) was 518.89 ± 36.68 pmoles/mg tissue wet weight and the “renal α-Methylspermidine” value (Sg mice, 250 mg/kg) was 288.30 pmoles/mg tissue wet weight. The “hepatic N^1-Acetyl-spermidine” value (Sg mice, 375 mg/kg) was 31.64 pmoles/mg tissue wet weight, the “hepatic Putrescine” value (Sg mice, 375 mg/kg) was 29.37 pmoles/mg tissue wet weight and the “hepatic Spermidine” value (Sg mice, 375 mg/kg) was 370.29 pmoles/mg tissue wet weight. For the same molecule, the “hepatic Spermine” value (Sg mice, 375 mg/kg) was 644.88 ± 183.36 ^+ pmoles/mg tissue wet weight, the “hepatic α-Methyl-spermidine” value (Sg mice, 375 mg/kg) was 1095.59 pmoles/mg tissue wet weight and the “pancreatic N^1-Acetyl-spermidine” value (Sg mice, 375 mg/kg) was 14.02 pmoles/mg tissue wet weight. For the same molecule, the “pancreatic Putrescine” value (Sg mice, 375 mg/kg) was 726.66 pmoles/mg tissue wet weight, the “pancreatic Spermidine” value (Sg mice, 375 mg/kg) was 4073.3 ± 670.46^++ pmoles/mg tissue wet weight and the “pancreatic Spermine” value (Sg mice, 375 mg/kg) was 740.93 pmoles/mg tissue wet weight. For the same molecule, the “pancreatic α-Methyl-spermidine” value (Sg mice, 375 mg/kg) was 1319.14 pmoles/mg tissue wet weight, the “renal N^1-Acetylspermidine” value (Sg mice, 375 mg/kg) was 27.40 pmoles/mg tissue wet weight and the “renal Putrescine” value (Sg mice, 375 mg/kg) was 58.59 pmoles/mg tissue wet weight. For the same molecule, the “renal Spermidine” value (Sg mice, 375 mg/kg) was 189.46 ± 0.98 pmoles/mg tissue wet weight, the “renal Spermine” value (Sg mice, 375 mg/kg) was 454.49 ± 64.44 ^+ pmoles/mg tissue wet weight and the “renal α-Methylspermidine” value (Sg mice, 375 mg/kg) was 477.31 pmoles/mg tissue wet weight. The “hepatic N^1-Acetyl-spermidine” value (Sg mice, 500 mg/kg) was 133.00 pmoles/mg tissue wet weight, the “hepatic Putrescine” value (Sg mice, 500 mg/kg) was 119.33 pmoles/mg tissue wet weight and the “hepatic Spermidine” value (Sg mice, 500 mg/kg) was 273.13 pmoles/mg tissue wet weight. For the same molecule, the “hepatic Spermine” value (Sg mice, 500 mg/kg) was 666.13 ± 188.21 pmoles/mg tissue wet weight, the “hepatic α-Methyl-spermidine” value (Sg mice, 500 mg/kg) was 1801.46 pmoles/mg tissue wet weight and the “pancreatic N^1-Acetyl-spermidine” value (Sg mice, 500 mg/kg) was 10.62 pmoles/mg tissue wet weight. For the same molecule, the “pancreatic Putrescine” value (Sg mice, 500 mg/kg) was 812.54 pmoles/mg tissue wet weight, the “pancreatic Spermidine” value (Sg mice, 500 mg/kg) was 3669.36 ± 1235.66 pmoles/mg tissue wet weight and the “pancreatic Spermine” value (Sg mice, 500 mg/kg) was 652.17 pmoles/mg tissue wet weight. The “pancreatic α-Methyl-spermidine” value (Sg mice, 500 mg/kg) was 1273.3 pmoles/mg tissue wet weight, the “renal N^1-Acetylspermidine” value (Sg mice, 500 mg/kg) was 46.34 pmoles/mg tissue wet weight and the “renal Putrescine” value (Sg mice, 500 mg/kg) was 789.63 pmoles/mg tissue wet weight. For the same molecule, the “renal Spermidine” value (Sg mice, 500 mg/kg) was 181.32 ± 28.81 pmoles/mg tissue wet weight, the “renal Spermine” value (Sg mice, 500 mg/kg) was 458.07 ± 107.68 pmoles/mg tissue wet weight and the “renal α-Methylspermidine” value (Sg mice, 500 mg/kg) was 1078.16 pmoles/mg tissue wet weight. For the same molecule, the “hepatic N^1-Acetyl-spermidine” value (Tg mice, 50 mg/kg) was 245.16 pmoles/mg tissue wet weight, the “hepatic Putrescine” value (Tg mice, 50 mg/kg) was 1055.38 pmoles/mg tissue wet weight and the “hepatic Spermidine” value (Tg mice, 50 mg/kg) was 329.57 pmoles/mg tissue wet weight. For the same molecule, the “hepatic Spermine” value (Tg mice, 50 mg/kg) was 103.26 ± 188.21 pmoles/mg tissue wet weight, the “hepatic α-Methyl-spermidine” value (Tg mice, 50 mg/kg) was 582.62 pmoles/mg tissue wet weight and the “pancreatic N^1-Acetyl-spermidine” value (Tg mice, 50 mg/kg) was 204.43 pmoles/mg tissue wet weight. The “pancreatic Putrescine” value (Tg mice, 50 mg/kg) was 4968.25 pmoles/mg tissue wet weight, the “pancreatic Spermidine” value (Tg mice, 50 mg/kg) was 1316.94 ± 248.44 pmoles/mg tissue wet weight and the “pancreatic Spermine” value (Tg mice, 50 mg/kg) was 224.17 pmoles/mg tissue wet weight. The “pancreatic α-Methyl-spermidine” value (Tg mice, 50 mg/kg) was 627.87 pmoles/mg tissue wet weight and the “renal N^1-Acetylspermidine” value (Tg mice, 50 mg/kg) was 49.14 pmoles/mg tissue wet weight.
